Measurements published in patent publication US20260151516A1, “NEW PET TRACER FOR IMAGING OF THE FUNCTIONAL HEPATIC RESERVE” (Medizinische Universität Innsbruck, priority 2022, published 2026).

Key:
[1] = Partition coefficient (log D), n-Octanol/PBS; assay type: physicochemical
Description: The vials were vortexed for 5 min at 1,500 rpm and then centrifuged for 5 min at 20,000 rcf (Eppendorf Centrifuge 5424).

human serum = assay: Protein binding in fresh human serum (Sephadex MicroSpin G-50 columns); assay type: in vitro ADME; settings: 37° C., 30 min
Description: Protein binding was determined for different time points (2 min, 30 min, 60 min, 120 min) in triplicates using Sephadex MicroSpin G-50 columns (GE-Healthcare, Chicago, Illinois, USA). The columns were spun initially at 20,000 rcf for 1 min to remove the storage buffer. Then approx. 5 MBq of radioligand was added to 1 mL of fresh human serum and incubated at 37° C. At each given timepoint 25 μL of the mixture was loaded on to the column, which was then spun at 20,000 rcf for 1 min. The activity content on the column (free radioligand) and in the filtrate (protein bound fraction) was quantified in a γ-counter.

[2] = Biodistribution studies incl. blocking experiments; assay type: in vivo; settings: healthy BALB/c mice
Description: For biodistribution studies 6 week old female BALB/c mice (n=3) were injected with 0.1 nmol (100 μL, approx. 1 MBq) of labelled compound via the lateral tail vein and sacrificed after 10, 30, or 60 min by cervical dislocation. The mice were dissected, blood and organs (spleen, pancreas, stomach, intestine, liver, kidney, heart, lung, muscle, and bone) were weighed, and their activity measured in a γ-counter. For blocking experiments, mice were co-injected with 100 μL of a 277 mM Galactose/PBS solution. In case of [^68Ga]Ga-TRAP-GalNAc a 277 mM N-Acetylgalactose solution was used.

[3] = 30 min p.i., blocking with 277 mM galactose

O=C(CCP(=O)([O-])CN1CCN(CP(=O)([O-])CCC(=O)NCc2cn(CCOCCOCCO[C@@H]3O[C@H](CO)[C@@H](O)[C@H](O)[C@H]3O)nn2)CCN(CP(=O)([O-])CCC(=O)NCc2cn(CCOCCOCCO[C@@H]3O[C@H](CO)[C@@H](O)[C@H](O)[C@H]3O)nn2)CC1)NCc1cn(CCOCCOCCO[C@@H]2O[C@H](CO)[C@@H](O)[C@H](O)[C@H]2O)nn1.[68Ga+3] [[^68Ga]Ga-TRAP-Gluco, reference compound]
logD [1]: −3.8 ± 0.08 | Protein binding (%) (human serum): 3.3 ± 2.0% | Biodistribution Blood ([2]; 10 min p.i.): 4.53 ± 0.52 % ID/g | Biodistribution Femur ([2]; 10 min p.i.): 0.86 ± 0.10 % ID/g | Biodistribution Intestine ([2]; 10 min p.i.): 1.10 ± 0.12 % ID/g | Biodistribution Kidneys ([2]; 10 min p.i.): 10.20 ± 1.23 % ID/g | Biodistribution Liver ([2]; 10 min p.i.): 1.06 ± 0.07 % ID/g | Biodistribution Lung ([2]; 10 min p.i.): 2.84 ± 0.13 % ID/g | Biodistribution Muscle ([2]; 10 min p.i.): 0.99 ± 0.10 % ID/g | Biodistribution Pancreas ([2]; 10 min p.i.): 1.03 ± 0.08 % ID/g | Biodistribution Spleen ([2]; 10 min p.i.): 0.94 ± 0.03 % ID/g | Biodistribution Stomach ([2]; 10 min p.i.): 1.59 ± 0.44 % ID/g | Biodistribution Blood ([2]; 30 min p.i.): 1.40 ± 0.50 % ID/g | Biodistribution Femur ([2]; 30 min p.i.): 0.15 ± 0.14 % ID/g | Biodistribution Heart ([2]; 30 min p.i.): 1.07 ± 0.34 % ID/g | Biodistribution Intestine ([2]; 30 min p.i.): 0.57 ± 0.20 % ID/g | Biodistribution Kidneys ([2]; 30 min p.i.): 3.95 ± 1.12 % ID/g | Biodistribution Liver ([2]; 30 min p.i.): 0.51 ± 0.17 % ID/g | Biodistribution Lung ([2]; 30 min p.i.): 0.32 ± 0.10 % ID/g | Biodistribution Muscle ([2]; 30 min p.i.): 0.35 ± 0.12 % ID/g | Biodistribution Pancreas ([2]; 30 min p.i.): 0.47 ± 0.18 % ID/g | Biodistribution Spleen ([2]; 30 min p.i.): 0.41 ± 0.13 % ID/g | Biodistribution Stomach ([2]; 30 min p.i.): 0.61 ± 0.19 % ID/g | Biodistribution Blood ([2]; 60 min p.i.): 0.16 ± 0.06 % ID/g | Biodistribution Femur ([2]; 60 min p.i.): 0.08 ± 0.03 % ID/g | Biodistribution Heart ([2]; 60 min p.i.): 0.08 ± 0.02 % ID/g | Biodistribution Intestine ([2]; 60 min p.i.): 0.14 ± 0.05 % ID/g | Biodistribution Kidneys ([2]; 60 min p.i.): 1.87 ± 0.33 % ID/g | Biodistribution Liver ([2]; 60 min p.i.): 0.15 ± 0.02 % ID/g | Biodistribution Lung ([2]; 60 min p.i.): 0.31 ± 0.03 % ID/g | Biodistribution Muscle ([2]; 60 min p.i.): 0.05 ± 0.01 % ID/g | Biodistribution Pancreas ([2]; 60 min p.i.): 0.09 ± 0.03 % ID/g | Biodistribution Spleen ([2]; 60 min p.i.): 0.11 ± 0.01 % ID/g | Biodistribution Stomach ([2]; 60 min p.i.): 0.09 ± 0.03 % ID/g

O=C(CCP(=O)([O-])CN1CCN(CP(=O)([O-])CCC(=O)NCc2cn([C@@H]3O[C@H](CO)[C@H](O)[C@H](O)[C@H]3O)nn2)CCN(CP(=O)([O-])CCC(=O)NCc2cn([C@@H]3O[C@H](CO)[C@H](O)[C@H](O)[C@H]3O)nn2)CC1)NCc1cn([C@@H]2O[C@H](CO)[C@H](O)[C@H](O)[C@H]2O)nn1.[68Ga+3] [[^68Ga]Ga-Galacto-TRAP]
logD [1]: −4.16±0.09 | Biodistribution Femur ([2]; 10 min p.i.): 1.11 ± 0.18 % ID/g | Biodistribution Heart ([2]; 10 min p.i.): 6.08 ± 0.51 % ID/g | Biodistribution Intestine ([2]; 10 min p.i.): 1.80 ± 0.16 % ID/g | Biodistribution Liver ([2]; 10 min p.i.): 12.2 ± 1.4 % ID/g | Biodistribution Lung ([2]; 10 min p.i.): 1.97 ± 0.07 % ID/g | Biodistribution Muscle ([2]; 10 min p.i.): 3.25 ± 0.27 % ID/g | Biodistribution Pancreas ([2]; 10 min p.i.): 1.20 ± 0.03 % ID/g | Biodistribution Spleen ([2]; 10 min p.i.): 5.58 ± 0.17 % ID/g | Biodistribution Stomach ([2]; 10 min p.i.): 1.17 ± 0.05 % ID/g | Biodistribution Blood ([2]; 30 min p.i.): 0.47 ± 0.16 % ID/g | Biodistribution Femur ([2]; 30 min p.i.): 0.44 ± 0.01 % ID/g | Biodistribution Heart ([2]; 30 min p.i.): 5.44 ± 0.75 % ID/g | Biodistribution Intestine ([2]; 30 min p.i.): 0.79 ± 0.15 % ID/g | Biodistribution Kidneys ([2]; 30 min p.i.): 0.88 ± 0.07 % ID/g | Biodistribution Liver ([2]; 30 min p.i.): 5.02 ± 1.08 % ID/g | Biodistribution Lung ([2]; 30 min p.i.): 0.75 ± 0.16 % ID/g | Biodistribution Pancreas ([2]; 30 min p.i.): 0.49 ± 0.07 % ID/g | Biodistribution Spleen ([2]; 30 min p.i.): 2.17 ± 0.54 % ID/g | Biodistribution Stomach ([2]; 30 min p.i.): 0.53 ± 0.05 % ID/g | Biodistribution Blood [2, 3]: 0.43 ± 0.14 % ID/g | Biodistribution Femur [2, 3]: 0.38 ± 0.06 % ID/g | Biodistribution Heart [2, 3]: 3.24 ± 0.19 % ID/g | Biodistribution Intestine [2, 3]: 0.67 ± 0.15 % ID/g | Biodistribution Kidneys [2, 3]: 0.75 ± 0.11 % ID/g | Biodistribution Liver [2, 3]: 5.10 ± 0.72 % ID/g | Biodistribution Lung [2, 3]: 0.68 ± 0.08 % ID/g | Biodistribution Muscle [2, 3]: 1.35 ± 0.16 % ID/g | Biodistribution Pancreas [2, 3]: 0.43 ± 0.02 % ID/g | Biodistribution Spleen [2, 3]: 1.84 ± 0.14 % ID/g | Biodistribution Stomach [2, 3]: 0.48 ± 0.05 % ID/g | Biodistribution Blood ([2]; 60 min p.i.): 0.11 ± 0.03 % ID/g | Biodistribution Femur ([2]; 60 min p.i.): 0.10 ± 0.04 % ID/g | Biodistribution Heart ([2]; 60 min p.i.): 4.84 ± 0.66 % ID/g | Biodistribution Intestine ([2]; 60 min p.i.): 0.14 ± 0.02 % ID/g | Biodistribution Kidneys ([2]; 60 min p.i.): 0.60 ± 0.06 % ID/g | Biodistribution Lung ([2]; 60 min p.i.): 0.12 ± 0.01 % ID/g | Biodistribution Muscle ([2]; 60 min p.i.): 0.35 ± 0.05 % ID/g | Biodistribution Pancreas ([2]; 60 min p.i.): 0.12 ± 0.02 % ID/g | Biodistribution Spleen ([2]; 60 min p.i.): 0.52 ± 0.23 % ID/g | Biodistribution Stomach ([2]; 60 min p.i.): 0.11 ± 0.01 % ID/g

O=C(CCP(=O)(O)CN1CCN(CP(=O)(O)CCC(=O)NCc2cn([C@@H]3O[C@H](CO)[C@H](O)[C@H](O)[C@H]3O)nn2)CCN(CP(=O)(O)CCC(=O)NCc2cn([C@@H]3O[C@H](CO)[C@H](O)[C@H](O)[C@H]3O)nn2)CC1)NCc1cn(C2O[C@H](CO)[C@H](O)[C@H](O)[C@H]2O)nn1 (stereo partly shown) [Galacto-TRAP]
Biodistribution Liver [2, 3]: 3.24±0.2 % ID/g
